Data taken from patent US6193967A, “Bispecific reagents for redirected targeting of human lipoproteins” (priority 1997, dated 2001).

Test system: monocytes
Assay: Uptake of bispecific LDL*-IC by monocytes (flow cytometry of cell-associated fluorescence)
Type: cell-based, human
Conditions: monocytes at 37° C., bispecific LDL*-IC (anti-FcγRII×anti-LDL plus BODIPY-LDL); antioxidant concentration not given
Procedure: All experiments were done under sterile conditions. For each experiment, bispecific LDL immune complexes (bispecific LDL*-IC) were freshly prepared by combining 4 μg/ml of LDL* with heteroantibodies in eppendorf tubes in monocyte culture medium (without serum or unlabeled LDL unless otherwise indicated), and incubating for one hour at room temperature, prior to adding cells in RPMI 1640 plus 10% FCS. That concentration of LDL* was chosen because it gave a satisfactory signal to noise ratio. In all experiments, a control consisting of LDL* alone was set up by substituting medium for heteroantibody. The final volume of bispecific complexes prior to addition of cells was […]; […] of cells at 1×10^7 /ml were added for a final volume of […]. The tubes were then mixed by gentle pipetting, and incubated at 4° C. or 37° C. as indicated. Final mAb or heteroantibody concentrations are shown in each figure; the final concentration of LDL* in all preparations was 1.33 μg/ml unless otherwise indicated. […]
In all experiments, cells were removed after various times of incubation and washed twice with one ml of PBS at room temperature. […] For cytofluorogaphic analysis, samples were analyzed for green fluorescence on a FACScan (Becton-Dickinson). The excitation wavelength was 488 nm and emission at 515 nm was analyzed. […]

Which “effect on the response to bispecific LDL*-IC (uptake by monocytes)” value does the source give for `Cc1cc(C(C)(C)C)c(O)c(C(C)(C)C)c1` [butylated hydroxytoluene] here?
Its value is “had no effect”.
